The results in this text go back to ChEMBL document CHEMBL1201862, “PubChem BioAssay data set” (2004).

Structures are written as SMILES. The source made the active and inactive calls.

As usually defined, the IC50 is the midpoint of a concentration-inhibition curve. A word on the EC50: it is the concentration at which the effect is half-maximal. In general, AC50 refers to the midpoint of the concentration-response curve, whichever way the signal moves. As a reminder, the GI50 is the concentration at which growth is held to half of that of the control.

Assay [1] deals with T1, Sentrin-specific protease 7 (Homo sapiens, UniProt Q9BQF6).
T1 sequence (Q9BQF6 whole entry): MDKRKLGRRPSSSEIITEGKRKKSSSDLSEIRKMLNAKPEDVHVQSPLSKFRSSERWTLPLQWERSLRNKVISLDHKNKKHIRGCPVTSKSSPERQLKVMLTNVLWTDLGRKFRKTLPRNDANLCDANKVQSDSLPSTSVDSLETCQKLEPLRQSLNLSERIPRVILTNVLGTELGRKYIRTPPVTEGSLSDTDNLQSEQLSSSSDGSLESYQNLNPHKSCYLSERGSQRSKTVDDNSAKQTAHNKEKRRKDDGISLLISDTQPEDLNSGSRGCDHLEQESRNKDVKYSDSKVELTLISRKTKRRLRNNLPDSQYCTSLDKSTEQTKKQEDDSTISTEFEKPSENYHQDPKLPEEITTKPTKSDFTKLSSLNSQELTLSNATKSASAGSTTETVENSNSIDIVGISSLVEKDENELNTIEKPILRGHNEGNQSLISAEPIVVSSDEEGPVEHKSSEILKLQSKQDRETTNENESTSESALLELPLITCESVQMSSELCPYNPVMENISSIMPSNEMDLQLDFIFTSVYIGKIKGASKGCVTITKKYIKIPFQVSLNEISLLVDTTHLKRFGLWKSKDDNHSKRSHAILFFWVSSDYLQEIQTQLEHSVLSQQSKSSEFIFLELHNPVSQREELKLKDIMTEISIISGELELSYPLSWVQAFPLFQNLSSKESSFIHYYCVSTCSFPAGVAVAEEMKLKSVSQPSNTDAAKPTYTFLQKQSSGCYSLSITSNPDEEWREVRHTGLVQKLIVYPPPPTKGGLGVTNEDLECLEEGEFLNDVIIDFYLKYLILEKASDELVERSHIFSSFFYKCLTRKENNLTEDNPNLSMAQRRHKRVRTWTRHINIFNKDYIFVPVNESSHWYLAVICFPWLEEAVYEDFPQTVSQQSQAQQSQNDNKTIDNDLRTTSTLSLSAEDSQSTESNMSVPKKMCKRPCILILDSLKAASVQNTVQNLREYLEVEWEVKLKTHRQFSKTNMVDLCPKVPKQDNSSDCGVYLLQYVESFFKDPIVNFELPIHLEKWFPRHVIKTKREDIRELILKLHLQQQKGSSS
In kind it is functional.

Another assay has as its target T2, Protein skinhead-1 (Caenorhabditis elegans, UniProt P34707).
T2 sequence (P34707 whole entry): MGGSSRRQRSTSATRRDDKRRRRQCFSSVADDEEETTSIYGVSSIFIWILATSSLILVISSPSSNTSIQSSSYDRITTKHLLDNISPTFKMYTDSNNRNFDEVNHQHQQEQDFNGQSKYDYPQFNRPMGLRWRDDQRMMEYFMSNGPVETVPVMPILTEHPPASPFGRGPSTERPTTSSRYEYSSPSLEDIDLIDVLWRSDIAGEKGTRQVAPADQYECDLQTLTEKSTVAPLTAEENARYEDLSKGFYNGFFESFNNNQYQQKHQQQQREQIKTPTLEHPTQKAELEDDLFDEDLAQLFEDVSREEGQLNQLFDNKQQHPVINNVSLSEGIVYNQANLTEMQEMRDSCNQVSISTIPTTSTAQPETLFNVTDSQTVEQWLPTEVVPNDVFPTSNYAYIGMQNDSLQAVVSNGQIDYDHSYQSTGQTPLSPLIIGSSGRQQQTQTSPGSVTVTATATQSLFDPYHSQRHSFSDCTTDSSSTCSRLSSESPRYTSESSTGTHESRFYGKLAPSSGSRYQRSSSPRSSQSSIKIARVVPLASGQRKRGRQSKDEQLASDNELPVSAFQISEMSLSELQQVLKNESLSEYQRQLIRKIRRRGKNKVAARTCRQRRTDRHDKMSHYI
In kind it is functional.

Assay [2] has as its target T3, Sentrin-specific protease 8 (Homo sapiens, UniProt Q96LD8).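 Also: luminescence read-out of SENP8 inhibition, dose-response confirmation following an ultra-high-throughput screen.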
T3 sequence (Q96LD8 whole entry): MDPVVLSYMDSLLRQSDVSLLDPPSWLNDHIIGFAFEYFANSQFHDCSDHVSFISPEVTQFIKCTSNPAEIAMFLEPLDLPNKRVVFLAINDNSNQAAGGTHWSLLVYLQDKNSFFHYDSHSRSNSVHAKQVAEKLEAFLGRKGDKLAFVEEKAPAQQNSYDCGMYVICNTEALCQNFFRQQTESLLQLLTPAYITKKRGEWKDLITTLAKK
In kind it is functional.

The target of assay [3] is T4, Sentrin-specific protease 6 (Homo sapiens, UniProt Q9GZR1).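 Also: Luminescence-based dose-response confirmatory assay of SENP6 inhibition, following up an ultra-high-throughput screen.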
T4 sequence (Q9GZR1 whole entry): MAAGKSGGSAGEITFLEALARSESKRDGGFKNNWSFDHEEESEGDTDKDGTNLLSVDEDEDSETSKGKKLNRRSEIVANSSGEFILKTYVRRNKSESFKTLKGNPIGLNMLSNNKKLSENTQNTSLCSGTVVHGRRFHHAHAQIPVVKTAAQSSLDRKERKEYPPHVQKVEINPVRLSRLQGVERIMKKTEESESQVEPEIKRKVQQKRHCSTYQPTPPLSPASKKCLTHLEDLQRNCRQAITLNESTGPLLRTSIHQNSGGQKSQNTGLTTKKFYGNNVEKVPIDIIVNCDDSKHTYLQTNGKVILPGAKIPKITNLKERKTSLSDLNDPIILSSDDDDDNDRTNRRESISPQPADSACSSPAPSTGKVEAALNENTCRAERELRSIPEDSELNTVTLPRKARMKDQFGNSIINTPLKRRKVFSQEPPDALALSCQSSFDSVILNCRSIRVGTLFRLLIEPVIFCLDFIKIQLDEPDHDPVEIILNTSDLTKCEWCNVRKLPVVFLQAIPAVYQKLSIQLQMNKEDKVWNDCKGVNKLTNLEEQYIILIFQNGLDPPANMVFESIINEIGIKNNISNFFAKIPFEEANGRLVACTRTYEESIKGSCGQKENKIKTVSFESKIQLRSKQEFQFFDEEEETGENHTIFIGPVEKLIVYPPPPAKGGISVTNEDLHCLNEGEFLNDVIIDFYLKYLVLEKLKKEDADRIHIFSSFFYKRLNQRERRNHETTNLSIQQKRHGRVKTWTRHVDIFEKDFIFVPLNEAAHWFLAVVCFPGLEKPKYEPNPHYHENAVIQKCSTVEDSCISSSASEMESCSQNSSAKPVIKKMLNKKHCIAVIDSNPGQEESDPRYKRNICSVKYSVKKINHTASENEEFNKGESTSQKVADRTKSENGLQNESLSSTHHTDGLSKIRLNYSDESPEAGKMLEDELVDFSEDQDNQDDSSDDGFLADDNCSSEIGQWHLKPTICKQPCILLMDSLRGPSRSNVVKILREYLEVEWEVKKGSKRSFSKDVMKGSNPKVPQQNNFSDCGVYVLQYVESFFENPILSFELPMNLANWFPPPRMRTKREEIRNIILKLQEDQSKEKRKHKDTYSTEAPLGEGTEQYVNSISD
In kind it is functional.

A further assay has as its target T5, Caspase-3 (Homo sapiens, UniProt P42574).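 Also: Dose-response selectivity test against caspase-3 for candidate inhibitors of sentrin-specific proteases (SENPs).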
T5 sequence (P42574 whole entry): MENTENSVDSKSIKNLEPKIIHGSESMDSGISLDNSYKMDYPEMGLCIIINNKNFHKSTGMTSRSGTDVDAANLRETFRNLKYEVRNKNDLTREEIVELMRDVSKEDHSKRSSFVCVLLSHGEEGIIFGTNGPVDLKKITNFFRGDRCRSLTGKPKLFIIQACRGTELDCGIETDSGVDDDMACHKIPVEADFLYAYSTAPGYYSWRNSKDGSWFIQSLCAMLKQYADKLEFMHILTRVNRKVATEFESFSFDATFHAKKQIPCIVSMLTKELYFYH
Format: functional.

Assay [4] concerns the target T6, Endoribonuclease toxin MazF (Escherichia coli K-12, UniProt P0AE70).
T6 sequence (P0AE70 whole entry): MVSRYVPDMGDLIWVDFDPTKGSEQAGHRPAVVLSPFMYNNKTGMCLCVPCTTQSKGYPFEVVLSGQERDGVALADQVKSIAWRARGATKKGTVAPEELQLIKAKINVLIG
In words: fluorescent RNA oligo signal without MazF, dose response, counter-screen for MazEF activator project, biochemical, fluorescence, single-stranded RNase substrate (AID 588502). In kind it is functional.

Assay [5] deals with T6, Endoribonuclease toxin MazF. Description: MazF toxin RNase activators, dose response, biochemical, fluorescence, single-stranded RNA substrate, uHTS hits (AID 588481). Format: functional.
Assay [6] relates to Streptococcus sp. 'group A'. Description: growth inhibition of control SK(-) GAS strain, dose response, counter-screen for streptokinase expression inhibitor project, luminescence, kanamycin, BacTiterGlo, confirmation (AID 1900). In kind it is functional, organism-based. Background: The purpose of a counterscreen is to sort out artefacts and off-target activity.
The next assay has as its system Streptococcus. In words: Group A Streptococcus viability loss, dose response, counter-screen for streptokinase expression inhibitor project, luminescence, BacTiterGlo (AID 1915).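 Also: potency for reduction of bacterial viability or growth.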 Format: functional, organism-based.
The nature of assay [7]: Luminescence Cell-Based Dose Response HTS to Identify Activators of Luciferase Translation or Activity in H4 […] Cells. [Related pubchem assays: 1829 (Project Summary), 1814 (Primary HTS)]. In kind it is functional.
The target in a further assay is T7, Streptokinase A (Streptococcus pyogenes serotype M1, UniProt P10520).
T7 sequence (P10520 whole entry): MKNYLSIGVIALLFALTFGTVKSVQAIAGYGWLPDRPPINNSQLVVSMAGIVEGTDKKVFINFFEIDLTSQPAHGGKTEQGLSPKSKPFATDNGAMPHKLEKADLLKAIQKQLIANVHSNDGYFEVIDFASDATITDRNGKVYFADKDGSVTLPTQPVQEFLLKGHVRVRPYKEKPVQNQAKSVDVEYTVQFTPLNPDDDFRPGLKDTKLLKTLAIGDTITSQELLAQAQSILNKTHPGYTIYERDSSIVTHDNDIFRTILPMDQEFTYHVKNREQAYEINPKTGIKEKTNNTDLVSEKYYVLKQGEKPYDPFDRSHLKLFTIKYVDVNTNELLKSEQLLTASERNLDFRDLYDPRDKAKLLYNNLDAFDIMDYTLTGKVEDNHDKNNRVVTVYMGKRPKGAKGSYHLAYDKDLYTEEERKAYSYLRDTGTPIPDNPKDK
Description: S. pyogenes streptokinase expression inhibitors, potency, dose response, plasminogen activation absorbance, OD405 (AID 1914).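 Also: secreted streptokinase activity via plasminogen activation per viability signal from cell pellet.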 Format: functional, Streptococcus pyogenes M1 GAS.

Assay [8] in a line: Luminescence Cell-Based Dose Confirmation HTS to Identify Activators of 5'UTR Stem-Loop Driven Alpha-Synuclein mRNA Translation in H4 Neuroglioblastoma Cells. [Related pubchem assays: 1829 (Project Summary), 1814 (Primary HTS)]. Format: functional.
The subject of the next assay is H4. Description: Luminescence Cell-Based Dose Response HTS to Identify Activators of 5'UTR Stem-Loop Driven Prion Protein mRNA Translation in H4 Neuroglioblastoma Cells. [Related pubchem assays: 1829 (Project Summary), 1814 (Primary HTS)]. Format: functional. Conditions: Homo sapiens.
The next assay concerns the target Cytochrome P450 2C9 (Homo sapiens, UniProt P11712).
The test system of the next assay is P388. Description: cells. Conditions: Mus musculus. In kind it is functional.
A further assay concerns P388/ADR. In words: cells. Conditions: Mus musculus. In kind it is functional.
A further assay concerns SN12K1. In words: cells. Format: functional. Conditions: Homo sapiens.

Sequence of Cytochrome P450 2C9 (P11712 whole entry): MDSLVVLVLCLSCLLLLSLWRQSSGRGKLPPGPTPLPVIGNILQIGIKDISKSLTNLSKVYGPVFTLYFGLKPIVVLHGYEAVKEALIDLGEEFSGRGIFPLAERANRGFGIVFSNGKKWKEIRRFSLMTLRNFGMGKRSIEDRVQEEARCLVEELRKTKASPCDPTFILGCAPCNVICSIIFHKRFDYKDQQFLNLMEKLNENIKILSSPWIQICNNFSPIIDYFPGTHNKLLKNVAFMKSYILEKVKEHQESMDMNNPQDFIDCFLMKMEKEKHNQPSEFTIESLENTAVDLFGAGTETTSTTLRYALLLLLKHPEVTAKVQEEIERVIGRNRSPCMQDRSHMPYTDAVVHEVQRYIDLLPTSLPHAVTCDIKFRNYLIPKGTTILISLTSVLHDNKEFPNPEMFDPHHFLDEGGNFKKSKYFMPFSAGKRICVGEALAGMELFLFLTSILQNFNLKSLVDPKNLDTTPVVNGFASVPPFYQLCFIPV

`CCCOc1ccc(-c2nnc(-c3ccco3)o2)cc1`: the IC50 was 11.6 µM (active) in assay [1]; 64 µM (inactive) at Protein skinhead-1; 25.8 µM (active) in assay [2]; 22.4 µM (active) in assay [3]; 17.4 µM (active) on Caspase-3.
For `CCN(CCNc1ccc([N+](=O)[O-])c2cccnc12)S(=O)(=O)c1ccccc1`, the EC50 in assay [4] and in assay [5] was > 99 µM (inactive) throughout.
On to `COc1ccc(CNC(=O)c2cc3c(=O)n4ccccc4nc3n(Cc3cccnc3)c2=N)cc1`, for which the EC50 in assay [4] was 47.3 µM (inactive); in assay [5] it was 55.4 µM (inactive).
Consider `O=C1/C(=C/Nc2ccc(O)cc2)c2ccccc2C(=O)N1Cc1ccccc1`, for which the EC50 in assay [6] was 6.51 µM (active); in [4] it was 44.3 µM (inactive); in [5] it was > 99 µM (inactive); in the assay with Streptococcus it was 14.6 µM (active); in assay [7] it was 39.6 µM (active); on Streptokinase A, 18.6 µM (active). For the same compound, the concentration for a half-maximal effect (EC50) was 17.7 µM (active) in [8] and 33 µM (active) with H4.
For `Cc1ccc(OCC(=O)Nc2ccc(Cl)cc2)c(-n2nc3ccccc3n2)c1`, the EC50 in [4] and in assay [5] was > 99 µM (inactive) throughout. The AC50 at Cytochrome P450 2C9 is 2 µM (inconclusive).
As to `COC1=C2C[C@@H](C)C[C@@H](OC)[C@@H](O)[C@H](C)/C=C(\C)[C@@H](OC(N)=O)[C@H](OC)/C=C\C=C(/C)C(=O)NC(=CC1=O)C2=O`, the concentration for 50% growth inhibition (GI50) in the assay on P388 was 0.015 µM (active); in the assay on P388/ADR it was 0.212 µM (active); in the assay on SN12K1, 0.11 µM (active).
In the case of `COCCCn1c(=O)/c(=C/c2ccccc2OC(F)F)s/c1=C(\C#N)C(=O)NCCOC`, the EC50 in assay [4] and in [5] was > 99 µM (inactive) in each case.
For `CSc1nc2c(ncn2C2OCC(O)C(O)C2O)c(=O)[nH]1` (configuration not stated), the GI50 with P388, with P388/ADR and in the assay with SN12K1 was > 100 µM (inactive) throughout.
On to `CCCCCn1cc2c3c(cccc31)C1C=C(C)CN(C)[C@@H]1C2.Cc1ccc(C(=O)OC(C(=O)O)C(OC(=O)c2ccc(C)cc2)C(=O)O)cc1` (configuration not stated), for which the GI50 with P388 was 2.63 µM (inactive); with P388/ADR, 3.18 µM (inactive); in the assay with SN12K1, 3.56 µM (inactive).
As for `N#C/C(=C\c1ccncc1)c1csc2ccccc12`, the GI50 in the assay with P388 is 19.1 µM (inactive); in the assay with P388/ADR, 6.49 µM (inactive); in the assay with SN12K1, 29.2 µM (inactive).
Turning to `Cc1ccc2[nH]c3c(C)c4ccncc4c(C)c3c2c1`, the GI50 with P388 was 0.394 µM (active); in the assay with P388/ADR, 0.933 µM (active); in the assay on SN12K1, 0.927 µM (active).
